The text below walks through data of patent US12582727B2, “Chemiluminescent and fluorescent nanoparticle for optical imaging of cancer” (priority 2018, dated 2026).

Series [1] relates to liver, lungs, kidney, heart, and spleen. Nature of the series: Histology (H&E) of internal organs for toxicity. The class given is in vivo. To be noted: compared to control (non-treated) group, 2 days post-intravenous injection. Here is the method: After euthanizing mice with carbon dioxide gas, the internal organs (liver, kidney, spleen, heart, and lung) and tumor tissue were extracted and photographed using IVIS imaging. In addition, tumor tissues were excised from the mice at 2 days post-intravenous injection of free-Ce6, GCCe6, FA-GCCe6, CNP and FA-CNP (0.1 mL equivalent Ce6 concentration of 1.34×10^−5 mol/kg body weight) fixed with 10% Neutral Buffered Formalin solution, and embedded in paraffin, followed by sectioning. The sliced internal organs (5 μm in thickness) were stained with hematoxylin and eosin (H&E) and observed under an optical microscope. In addition, sliced tumor tissues were determined their FL and CL imaging under a confocal laser scanning microscope (Zeusis Nikon, Tokyo, Japan).

In series [2] the test system is NOK (Normal oral keratinocyte). Put plainly: Cellular uptake, NOK cells (FRα-negative). The class given is cell-based. The settings on record: 1 and 3 hours of incubation, comparison among samples. Here is the method: The cell internalization of CNPs was characterized by a fluorescence microscopy. As shown in FIGS. 14A and 14B, the CNPs quickly enter into NOK and MOC2 cells. […] Through the cellular uptake study, it was confirmed that CNPs efficiently enter into the cells within 1 hour.
To evaluate the cellular uptake, NOK (Normal oral keratinocyte) and MOC2 (immunogenic murine squamous cell carcinoma) cells were used as folate receptor alpha (FRα)-negative and -positive cells, respectively (FIGS. 15A and 15B).
For visualization of the cellular uptake, the NOK and MOC2 cells in each well were treated with free-Ce6, GCCe6, FA-GCCe6, CNP and FA-CNP and then subjected to DAPI staining. […] The fluorescence images matched to the corresponding data in FIGS. 15A and 15B. The enhancement of the cellular uptake is attributed to the presence of FA facilitating receptor-mediated endocytosis.

chlorin e6 [free-Ce6]: the “toxicity in H&E stained internal organs” value in series [1] is on record as “no significant cellular toxicity”. In series [2], the cellular uptake amount result is recorded as “no significant difference”.
